Patent US20230321012A1 (priority 2021, published 2023)
Entries after “also recorded” stand apart in the source; their conditions may differ.

Key:
[1] = Water solubility, bioavailability and Biopharmaceutics Classification System class; assay type: physicochemical; conditions: oral
Excerpt: Interim data for the pharmacokinetic (PK) behavior of both agents in human subjects has been generated.

[2] = Clinical safety and tolerability, dose-limiting toxicities (NCT03536728); assay type: in vivo
Excerpt: Clinical Trial Outline. […] All solid tumor types are eligible for the trial. […] DFMO was delivered orally twice daily in gel capsules.
These DLTs involved vomiting, diarrhea and nausea, and inferred a potential dual drug targeting of the gastrointestinal (GI) tract in these patients. One patient experienced severe dehydration, requiring hospitalization. A similar observation was made in dogs in Aminex's 28-day toxicological testing. […] The clinical observations and the data obtained in dog studies, together, support the hypothesis that combined oral drug dosing levels and DFMO targeting of the GI tract are causing the intolerance.
In cohorts before Part 2, Cohort 4, 14 adults were treated at 1,200 mg or higher of AMXT 1501 daily, either once daily or BID, with no DLTs. A total of 18 patients were treated at 800 mg AMXT 1501 or higher daily with no DLTs. These patients included a couple of adult patients where Cmax values above 1,000 ng/mL AMXT 1501 plasma levels were observed, again with no DLTs observed.

For `CCCCCCCCCCCCCCCC(=O)NCCCC[C@@H](N)C(=O)NCCCNCCCCNCCCN` [AMXT 1501 dicaprate], the bioavailability [1] was “low bioavailability”, the clinical tolerability ([2]; oral 1,200 mg AMXT 1501 dicaprate alone, once daily or split BID) was “well tolerated clinically; also recorded: well-tolerated clinically” and the “GI adverse effects on changing from once daily to twice daily (BID) delivery” value ([2]; patients, similar dose levels) was “greatly reduced; also recorded: substantially minimized”.
